Results as given in ChEMBL document CHEMBL4028827, “Discovery of indazole aldosterone synthase (CYP11B2) inhibitors as potential treatments for hypertension” (Bioorg Med Chem Lett, 2017).

Columns and labels:
[1] = molecular target: T1, Cytochrome P450 11B2, mitochondrial (Homo sapiens, UniProt P19099); assay: Inhibition of human CYP11B2-CLE9 expressed in Chinese hamster V79 cells using 11-deoxycorticosterone as substrate preincubated for 1 hr followed by substrate addition measured for 3 hrs by HTRF assay; type: cell-based
T1 sequence (P19099 whole entry): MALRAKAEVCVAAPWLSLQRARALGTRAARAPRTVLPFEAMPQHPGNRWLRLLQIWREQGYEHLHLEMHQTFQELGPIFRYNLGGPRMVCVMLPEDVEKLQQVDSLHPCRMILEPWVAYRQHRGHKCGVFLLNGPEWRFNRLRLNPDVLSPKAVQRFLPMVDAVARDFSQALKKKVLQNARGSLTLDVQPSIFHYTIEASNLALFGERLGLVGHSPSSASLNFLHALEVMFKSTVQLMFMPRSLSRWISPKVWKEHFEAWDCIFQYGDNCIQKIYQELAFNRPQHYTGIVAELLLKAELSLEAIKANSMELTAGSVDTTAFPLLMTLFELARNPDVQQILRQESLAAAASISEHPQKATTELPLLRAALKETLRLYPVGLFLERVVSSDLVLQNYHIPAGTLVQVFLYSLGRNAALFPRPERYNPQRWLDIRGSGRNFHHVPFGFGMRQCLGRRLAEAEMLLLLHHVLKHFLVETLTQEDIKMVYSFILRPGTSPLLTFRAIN

[2] = molecular target: T2, Cytochrome P450 11B1, mitochondrial (Homo sapiens, UniProt P15538); assay: Inhibition of human CYP11B1-8C7 expressed in Chinese hamster V79 cells using 11-deoxycortisol as substrate preincubated for 1 hr followed by substrate addition measured for 3 hrs by HTRF assay; type: ADME, cell-based
T2 sequence (P15538 whole entry): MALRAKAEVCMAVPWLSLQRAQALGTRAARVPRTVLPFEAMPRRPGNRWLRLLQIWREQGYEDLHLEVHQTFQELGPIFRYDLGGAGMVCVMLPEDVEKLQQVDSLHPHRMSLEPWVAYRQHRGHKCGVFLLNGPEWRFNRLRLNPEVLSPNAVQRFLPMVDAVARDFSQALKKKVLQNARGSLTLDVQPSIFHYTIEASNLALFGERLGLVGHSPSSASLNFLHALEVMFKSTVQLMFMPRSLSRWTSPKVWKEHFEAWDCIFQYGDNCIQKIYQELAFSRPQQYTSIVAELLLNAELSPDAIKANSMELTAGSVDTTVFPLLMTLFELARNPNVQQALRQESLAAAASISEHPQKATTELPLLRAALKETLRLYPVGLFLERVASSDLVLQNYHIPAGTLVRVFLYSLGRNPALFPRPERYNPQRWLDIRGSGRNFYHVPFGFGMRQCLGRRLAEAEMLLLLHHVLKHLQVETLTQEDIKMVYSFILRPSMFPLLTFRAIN

[3] = Selectivity ratio of IC50 for human CYP11B1-8C7 expressed in Chinese hamster V79 cells to IC50 for human CYP11B2-CLE9 expressed in Chinese hamster V79 cells
[4] = molecular target: T3, Cytochrome P450 11B2, mitochondrial (Rattus norvegicus, UniProt P30099); assay: Inhibition of rat CYP11B2-1F4 expressed in Chinese hamster V79 cells using 11-deoxycorticosterone as substrate preincubated for 1 hr followed by substrate addition measured for 3 hrs by HTRF assay; type: cell-based
T3 sequence (P30099 whole entry): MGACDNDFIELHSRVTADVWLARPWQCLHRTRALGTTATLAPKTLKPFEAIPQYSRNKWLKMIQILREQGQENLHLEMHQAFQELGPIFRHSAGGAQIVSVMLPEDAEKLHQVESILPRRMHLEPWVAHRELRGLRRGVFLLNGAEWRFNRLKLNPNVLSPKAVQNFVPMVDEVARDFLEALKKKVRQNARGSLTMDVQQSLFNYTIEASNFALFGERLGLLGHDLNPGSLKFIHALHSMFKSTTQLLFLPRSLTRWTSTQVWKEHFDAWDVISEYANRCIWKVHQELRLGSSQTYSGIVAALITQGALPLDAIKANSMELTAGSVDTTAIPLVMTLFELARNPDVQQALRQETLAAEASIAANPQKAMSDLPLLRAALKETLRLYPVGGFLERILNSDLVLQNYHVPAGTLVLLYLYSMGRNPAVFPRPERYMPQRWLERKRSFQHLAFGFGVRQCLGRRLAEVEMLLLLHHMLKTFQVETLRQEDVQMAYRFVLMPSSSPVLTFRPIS

[5] = molecular target: T4, Steroid 17-alpha-hydroxylase/17,20 lyase (Homo sapiens, UniProt P05093); assay: Inhibition of human CYP17 expressed in African green monkey COS7 cells using 17-hydroxypregnenolone as substrate preincubated for 1 hr followed by substrate addition measured after 3 hrs by EIA; type: cell-based
T4 sequence (P05093 whole entry): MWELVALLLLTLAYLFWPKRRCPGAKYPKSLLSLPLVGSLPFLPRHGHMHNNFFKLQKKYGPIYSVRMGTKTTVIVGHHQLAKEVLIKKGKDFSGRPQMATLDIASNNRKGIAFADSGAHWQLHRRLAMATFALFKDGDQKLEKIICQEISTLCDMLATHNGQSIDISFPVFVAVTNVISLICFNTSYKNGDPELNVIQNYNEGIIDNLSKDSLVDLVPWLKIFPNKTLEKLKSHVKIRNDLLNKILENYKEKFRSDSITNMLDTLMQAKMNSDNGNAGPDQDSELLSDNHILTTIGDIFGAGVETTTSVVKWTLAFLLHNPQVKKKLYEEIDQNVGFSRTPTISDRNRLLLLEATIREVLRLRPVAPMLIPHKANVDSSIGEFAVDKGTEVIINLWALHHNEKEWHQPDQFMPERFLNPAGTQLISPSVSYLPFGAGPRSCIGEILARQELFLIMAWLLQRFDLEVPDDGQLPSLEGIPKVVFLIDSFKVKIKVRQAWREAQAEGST

Aromatase = molecular target: T5, Aromatase (Homo sapiens, UniProt P11511); assay: Inhibition of CYP19 (unknown origin) using MFC as substrate and NADPH as cofactor preincubated for 10 mins with cofactor followed by substrate/enzyme addition measured after 30 mins
T5 sequence (P11511 whole entry): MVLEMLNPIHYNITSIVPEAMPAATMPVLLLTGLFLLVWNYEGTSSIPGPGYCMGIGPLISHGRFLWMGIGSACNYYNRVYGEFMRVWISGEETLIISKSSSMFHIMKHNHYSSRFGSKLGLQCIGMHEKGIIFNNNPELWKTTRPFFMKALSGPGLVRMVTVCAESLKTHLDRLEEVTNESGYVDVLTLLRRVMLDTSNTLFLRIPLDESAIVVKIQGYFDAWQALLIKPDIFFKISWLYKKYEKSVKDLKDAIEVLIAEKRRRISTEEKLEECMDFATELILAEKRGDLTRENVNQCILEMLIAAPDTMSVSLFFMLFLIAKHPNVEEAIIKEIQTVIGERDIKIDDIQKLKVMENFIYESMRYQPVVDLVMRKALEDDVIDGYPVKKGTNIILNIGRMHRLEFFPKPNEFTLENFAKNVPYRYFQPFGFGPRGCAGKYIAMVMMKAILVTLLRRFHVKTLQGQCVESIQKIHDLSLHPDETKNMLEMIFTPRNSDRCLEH

Steroid 21-hydroxylase = molecular target: T6, Steroid 21-hydroxylase (Homo sapiens, UniProt P08686); assay: Inhibition of human CYP21 expressed in African green monkey COS7 cells using […] as substrate preincubated for 1 hr followed by substrate addition measured for 3 hrs by HTRF assay; type: cell-based
T6 sequence (P08686 whole entry): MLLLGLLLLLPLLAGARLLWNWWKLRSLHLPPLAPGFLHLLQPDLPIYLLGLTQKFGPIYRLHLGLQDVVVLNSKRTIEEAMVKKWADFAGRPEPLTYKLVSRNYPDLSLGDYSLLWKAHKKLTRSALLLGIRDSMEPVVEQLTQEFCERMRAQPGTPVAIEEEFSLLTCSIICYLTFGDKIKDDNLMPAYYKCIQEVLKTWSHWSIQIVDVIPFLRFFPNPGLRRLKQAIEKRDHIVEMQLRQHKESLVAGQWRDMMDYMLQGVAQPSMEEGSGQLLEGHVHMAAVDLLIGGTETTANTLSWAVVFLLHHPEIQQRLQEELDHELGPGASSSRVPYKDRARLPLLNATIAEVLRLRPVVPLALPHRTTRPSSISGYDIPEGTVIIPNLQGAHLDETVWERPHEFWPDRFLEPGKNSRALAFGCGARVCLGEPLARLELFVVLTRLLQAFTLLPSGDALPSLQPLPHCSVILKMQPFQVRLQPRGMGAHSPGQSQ

Cytochrome P450 3A4 = Cytochrome P450 3A4 (Homo sapiens, UniProt P08684); assay: Inhibition of hepatic CYP3A4 (unknown origin); type: ADME
Cytochrome P450 2C9 = Cytochrome P450 2C9 (Homo sapiens, UniProt P11712); assay: Inhibition of hepatic CYP2C9 (unknown origin); type: ADME
Cytochrome P450 2D6 = Cytochrome P450 2D6 (Homo sapiens, UniProt P10635); assay: Inhibition of hepatic CYP2D6 (unknown origin); type: ADME
Cytochrome P450 2D6, sequence (P10635 whole entry): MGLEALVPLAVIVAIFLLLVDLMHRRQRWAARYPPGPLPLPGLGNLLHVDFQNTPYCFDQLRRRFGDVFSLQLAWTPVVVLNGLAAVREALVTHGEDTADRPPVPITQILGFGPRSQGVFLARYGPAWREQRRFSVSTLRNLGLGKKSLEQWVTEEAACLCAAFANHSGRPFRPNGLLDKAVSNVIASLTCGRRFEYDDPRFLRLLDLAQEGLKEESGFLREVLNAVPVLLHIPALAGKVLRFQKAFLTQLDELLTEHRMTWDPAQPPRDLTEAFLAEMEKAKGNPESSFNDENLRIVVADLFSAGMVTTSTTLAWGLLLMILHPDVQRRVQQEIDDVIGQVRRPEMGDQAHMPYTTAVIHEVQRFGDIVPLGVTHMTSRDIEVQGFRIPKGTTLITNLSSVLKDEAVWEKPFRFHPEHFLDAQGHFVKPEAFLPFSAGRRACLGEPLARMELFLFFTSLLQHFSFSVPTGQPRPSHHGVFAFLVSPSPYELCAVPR

Cytochrome P450 3A4, sequence (P08684 whole entry): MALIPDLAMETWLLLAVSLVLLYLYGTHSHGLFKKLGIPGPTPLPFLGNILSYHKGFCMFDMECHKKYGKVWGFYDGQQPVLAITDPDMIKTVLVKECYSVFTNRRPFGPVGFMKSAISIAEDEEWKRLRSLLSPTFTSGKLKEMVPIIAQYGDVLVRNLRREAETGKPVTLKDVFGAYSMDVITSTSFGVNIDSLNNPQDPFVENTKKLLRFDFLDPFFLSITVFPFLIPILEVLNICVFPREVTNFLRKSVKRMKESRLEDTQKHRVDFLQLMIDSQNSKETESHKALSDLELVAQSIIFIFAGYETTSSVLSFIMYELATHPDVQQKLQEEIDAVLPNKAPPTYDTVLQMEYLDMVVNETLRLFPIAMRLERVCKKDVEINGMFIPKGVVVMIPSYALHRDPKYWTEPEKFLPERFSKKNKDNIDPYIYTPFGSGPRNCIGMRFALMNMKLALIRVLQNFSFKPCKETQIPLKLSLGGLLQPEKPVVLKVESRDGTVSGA
Cytochrome P450 2C9, sequence (P11712 whole entry): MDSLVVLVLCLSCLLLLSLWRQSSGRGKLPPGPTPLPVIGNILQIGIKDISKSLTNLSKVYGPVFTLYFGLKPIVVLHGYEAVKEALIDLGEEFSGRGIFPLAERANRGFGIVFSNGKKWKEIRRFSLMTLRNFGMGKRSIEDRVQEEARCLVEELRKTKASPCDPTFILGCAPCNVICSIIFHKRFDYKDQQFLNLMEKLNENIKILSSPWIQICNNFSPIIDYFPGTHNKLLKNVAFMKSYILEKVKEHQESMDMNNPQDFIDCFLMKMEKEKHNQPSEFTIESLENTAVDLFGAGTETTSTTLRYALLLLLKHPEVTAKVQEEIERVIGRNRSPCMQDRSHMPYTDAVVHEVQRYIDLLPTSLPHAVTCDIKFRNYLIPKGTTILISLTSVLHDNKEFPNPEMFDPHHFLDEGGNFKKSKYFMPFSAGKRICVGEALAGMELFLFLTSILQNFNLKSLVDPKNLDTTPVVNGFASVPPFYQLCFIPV

IC50 [1] [µM] | IC50 [2] [µM] | IC50 [4] [µM] | IC50 [5] [µM] | IC50 (Aromatase) [µM] | IC50 (Steroid 21-hydroxylase) [µM] | IC50 (Cytochrome P450 3A4) [µM] | IC50 (Cytochrome P450 2C9) [µM] | IC50 (Cytochrome P450 2D6) [µM] | SMILES | Ratio IC50 [3]
0.0329 to 0.033 | 0.386 to 0.39 | 0.033 | > 10 | 6.2 | > 10 | > 50 | 3.8 | > 50 | Cc1nn(-c2cncc([C@@](C)(O)C(F)(F)F)c2)c2ccccc12 | 12
0.0013 to 0.00131 | 0.022 to 0.0223 | 0.0013 | > 10 | 6.9 | > 10 | > 50 | 4.7 | > 50 | Cc1nn(-c2cncc(C(C)(C)O)c2)c2cccc(F)c12 | 17
0.014 to 0.0143 | 0.338 to 0.34 | 0.014 | > 10 | 6.3 | > 10 | > 50 | 11 | > 50 | Cc1nn(-c2cncc([C@](C)(O)C(F)(F)F)c2)c2ccccc12 | 24
0.077 to 0.0774 | 0.856 to 0.86 | 0.077 | > 10 | 5.4 | > 10 | > 50 | 7.2 | > 50 | C[C@](O)(c1cncc(-n2nc(C(F)(F)F)c3ccccc32)c1)C(F)(F)F | 11
